Results on 15 compounds are retold here after patent US9114137B2, “Derivatives of pyrazolophenyl-benzenesulfonamide compounds and use thereof as antitumor agents” (Nerviano Medical Sciences S.R.L., priority 2010, dated 2015).

What all share (type): cell-based
The subject of assay [1] is p-MAPK (T202/Y204) in A375 human melanoma cells, having a mutated B-RAF. Briefly: p-MAPK (T202/Y204) ArrayScan assay. The conditions noted are these: A-375, 1.5 or 2 hours treatment, cytoplasmatic p-MAPK fluorescence, read-out: Array Scan A375 IC50. As to the method: A375 human melanoma cells, having a mutated B—RAF, were seeded in 384-well poly-lysine coated plates (Matrix) at a density of 1000 cells/well with appropriate medium supplemented with 10% FCS and incubated for 16-24 hours. Cells were treated for 1.5 or 2 hours with increasing doses of compounds (starting dose 10 μM, dilution factor 2.5). At the end of the treatment cells were fixed with p-formaldehyde 3.7% for 15-30 min, then washed twice with D-PBS (80 μl/well) and permeabilized with D-PBS containing 0.1% Triton X-100 and 1% BSA (Sigma-Aldrich) for 15 minutes at room temperature (staining solution). Anti-phospho-MAPK (T202/Y204) monoclonal antibody E10 (Cell Signaling, cat. #9106) diluted 1:100 was added in staining solution and incubated for 1 hour at 37° C. After removal of the primary antibody solution, the anti-mouse Cy™2-conjugated (Green) secondary antibody (Amersham) diluted 1:500 in staining solution containing 2 μg/ml DAPI was added. The plate was incubated for 1 hour at 37° C., washed twice and then red with Cellomics' ArrayScan VTI (4 fields/well, CytoNucTrans algorithm).
The parameter “MEAN_RingAvgIntenCh2,” which measures the mean cytoplasmatic fluorescence intensity associated to p-MAPK staining, is reported as the final result.

Assay [2] deals with human melanoma cells A375 (with a mutated B-RAF). Briefly: In vitro cell proliferation assay, A375. Conditions: A-375. How it is done: (§1) Exponentially growing human melanoma cells A375 (with a mutated B-RAF) and human melanoma cells Mewo (with wild-type B-Raf) were seeded and incubated at 37° C. in a humidified 5% CO2 atmosphere. After 24 hours, scalar doses of the compound were added to the medium and cells incubated for 72 hours. At the end of treatment, cells were washed and counted. Cell number was determined by a cellular adenosine triphosphate monitoring system. Cell proliferation was compared to control cells and the concentration inhibiting cell growth by 50% was calculated.

Assay [3] deals with human melanoma cells Mewo (with wild-type B-Raf). Briefly: In vitro cell proliferation assay, Mewo. The conditions noted are these: 72 hours incubation, cell number by ATP monitoring. How it is done: as §1
[4] abbreviates: A375 human melanoma cells (mutated B-RAF), 72 hours incubation, cell number by ATP monitoring, read-out: Proliferation A375 IC50.

Read-outs that look alike come from different tables or passages of the source. Some results are limits rather than exact numbers.

Take `O=S(=O)(Nc1cccc(-c2nn(C3CCN(C4CC4)CC3)cc2-c2ccncc2)c1F)c1cc(F)ccc1F` [Compound 2, N-{3-[1-(1-Cyclopropyl-piperidin-4-yl)-4-pyridin-4-yl-1H-pyrazol-3-yl]-2-fluoro-phenyl}-2,5-difluoro-benzenesulfonamide]: the results for the IC50 in assay [1], in assay [2] (setting [4]) and in assay [3] were less than 16 nM, 12 nM and greater than 10000 nM, respectively.

In the case of `CN1CCC(n2cc(-c3ccncc3)c(-c3cccc(NS(=O)(=O)c4cc(F)ccc4F)c3F)n2)CC1` [Compound 5, 2,5-Difluoro-N-{2-fluoro-3-[1-(1-methyl-piperidin-4-yl)-4-pyridin-4-yl-1H-pyrazol-3-yl]-phenyl}-benzenesulfonamide], the IC50 in assay [1] is less than 16 nM; in assay [2] (setting [4]) it was 8 nM; in assay [3] it was greater than 10000 nM.

In the case of `O=S(=O)(Nc1cccc(-c2nn(CCF)cc2-c2ccncc2)c1F)c1cc(F)ccc1F` [Compound 7, 2,5-Difluoro-N-{2-fluoro-3-[1-(2-fluoro-ethyl)-4-pyridin-4-yl-1H-pyrazol-3-yl]-phenyl}-benzenesulfonamide], the IC50 was less than 16 nM in assay [1], less than 16 nM in assay [2] (setting [4]) and greater than 10000 nM in assay [3].

As for `CC(C)n1cc(-c2ccncc2)c(-c2cccc(NS(=O)(=O)c3cc(F)ccc3F)c2F)n1` [Compound 9, 2,5-Difluoro-N-[2-fluoro-3-(1-isopropyl-4-pyridin-4-yl-1H-pyrazol-3-yl)-phenyl]-benzenesulfonamide], the IC50 is less than 16 nM in assay [1], 5 nM in assay [2] (setting [4]) and greater than 10000 nM in assay [3].

Turning to `CC(C)n1cc(-c2ccnc(N)n2)c(-c2cccc(NS(=O)(=O)c3cc(F)ccc3F)c2F)n1` [Compound 10, N-{3-[4-(2-Amino-pyrimidin-4-yl)-1-isopropyl-1H-pyrazol-3-yl]-2-fluoro-phenyl}-2,5-difluoro-benzenesulfonamide], the IC50 is less than 16 nM in assay [1], 3 nM in assay [2] (setting [4]) and greater than 10000 nM in assay [3].

Regarding `Nc1nccc(-c2cn(CCF)nc2-c2cccc(NS(=O)(=O)c3cc(F)ccc3F)c2F)n1` [Compound 11, N-{3-[4-(2-Amino-pyrimidin-4-yl)-1-(2-fluoro-ethyl)-1H-pyrazol-3-yl]-2-fluoro-phenyl}-2,5-difluoro-benzenesulfonamide], the IC50 was less than 16 nM in assay [1], 17 nM in assay [2] (setting [4]) and greater than 10000 nM in assay [3].

Take `CC(C)n1cc(-c2ccnc(N)c2)c(-c2cccc(NS(=O)(=O)c3cc(F)ccc3F)c2F)n1` [Compound 12, N-{3-[4-(2-Amino-pyridin-4-yl)-1-isopropyl-1H-pyrazol-3-yl]-2-fluoro-phenyl}-2,5-difluoro-benzenesulfonamide]: the IC50 in assay [1] was less than 16 nM; in assay [2] (setting [4]) it was 17 nM; in assay [3], greater than 10000 nM.

Turning to `Nc1cc(-c2cn(CCF)nc2-c2cccc(NS(=O)(=O)c3cc(F)ccc3F)c2F)ccn1` [Compound 13, N-{3-[4-(2-Amino-pyridin-4-yl)-1-(2-fluoro-ethyl)-1H-pyrazol-3-yl]-2-fluoro-phenyl}-2,5-difluoro-benzenesulfonamide], the figures for the IC50 in assay [1], in assay [2] (setting [4]) and in assay [3] were less than 16 nM, less than 16 nM and greater than 10000 nM, respectively.

As to `Nc1cc(-c2cn(C3CCOCC3)nc2-c2cccc(NS(=O)(=O)c3cc(F)ccc3F)c2F)ccn1` [Compound 14, N-{3-[4-(2-Amino-pyridin-4-yl)-1-(tetrahydro-pyran-4-yl)-1H-pyrazol-3-yl]-2-fluoro-phenyl}-2,5-difluoro-benzenesulfonamide], the IC50 in assay [1] is less than 16 nM; in assay [2] (setting [4]) it was 34 nM; in assay [3], greater than 10000 nM.

In the case of `Nc1cc(-c2cn(C3CCCC3)nc2-c2cccc(NS(=O)(=O)c3cc(F)ccc3F)c2F)ccn1` [Compound 17, N-{3-[4-(2-Amino-pyridin-4-yl)-1-cyclopentyl-1H-pyrazol-3-yl]-2-fluoro-phenyl}-2,5-difluoro-benzenesulfonamide], the IC50 is less than 16 nM in assay [1], 28 nM in assay [2] (setting [4]) and greater than 10000 nM in assay [3].

For `O=S(=O)(Nc1cccc(-c2nn(C3CCC(F)(F)CC3)cc2-c2ccncc2)c1F)c1cc(F)ccc1F` [Compound 25, N-{3-[1-(4,4-difluorocyclohexyl)-4-(pyridin-4-yl)-1H-pyrazol-3-yl]-2-fluorophenyl}-2,5-difluorobenzenesulfonamide], the IC50 in assay [1] was less than 16 nM; in assay [2] (setting [4]) it was less than 16 nM; in assay [3] it was greater than 10000 nM.

Turning to `CC(=O)Nc1cc(-c2cn(C3CCOCC3)nc2-c2cccc(NS(=O)(=O)c3cc(F)ccc3F)c2F)ccn1` [Compound 26, N-{4-[3-(3-{[(2,5-difluorophenyl)sulfonyl]amino}-2-fluorophenyl)-1-(tetrahydro-2H-pyran-4-yl)-1H-pyrazol-4-yl]pyridin-2-yl}acetamide], the IC50 in assay [1] was less than 16 nM; in assay [2] (setting [4]) it was 7 nM; in assay [3] it was greater than 10000 nM.

With `CC(C)C(=O)Nc1cc(-c2cn(C3CCOCC3)nc2-c2cccc(NS(=O)(=O)c3cc(F)ccc3F)c2F)ccn1` [Compound 30, N-{4-[3-(3-{[(2,5-difluorophenyl)sulfonyl]amino}-2-fluorophenyl)-1-(tetrahydro-2H-pyran-4-yl)-1H-pyrazol-4-yl]pyridin-2-yl}-2-methylpropanamide], the IC50 in assay [1] was less than 16 nM; in assay [2] (setting [4]), less than 16 nM; in assay [3], greater than 10000 nM.

For `CC(=O)Nc1cc(-c2cn(C3CCN(C)CC3)nc2-c2cccc(NS(=O)(=O)c3cc(F)ccc3F)c2F)ccn1` [Compound 31, N-{4-[3-(3-{[(2,5-difluorophenyl)sulfonyl]amino}-2-fluorophenyl)-1-(1-methylpiperidin-4-yl)-1H-pyrazol-4-yl]pyridin-2-yl}acetamide], the results for the IC50 in assay [1], in assay [2] (setting [4]) and in assay [3] were less than 16 nM, less than 16 nM and greater than 10000 nM, respectively.

For the compound `CCn1cc(-c2ccncc2)c(-c2cccc(NS(=O)(=O)c3cc(F)ccc3F)c2F)n1` [Ref. cpd, N-{3-[1-ethyl-4-(pyridin-4-yl)-1H-pyrazol-3-yl]-2-fluorophenyl}-2,5-difluorobenzenesulfonamide, reference compound], the IC50 was less than 16 nM in assay [1]; 48 nM in assay [2] (setting [4]); 84 nM in assay [2] (Homo sapiens, value quoted in text for the reference compound, no unit or cell line printed, read-out: antiproliferative activity); greater than 10000 nM in assay [3].
